Assay results reported in patent publication US9845319B2, “Amide substituted thiazoles as modulators of RORyt” (Janssen Pharmaceutica NV, priority 2014, dated 2017).

Key:
[1] = target: T1, human RORγt ligand binding domain (RORγt LBD) (Homo sapiens, UniProt P51449); assay: RORγt ThermoFluor assay; settings: estimated from thermal shift concentration response
T1 construct: His-tag (N); TurboTEV protease cleavage site (ENLYFQG) (N); made in house; host or cells: E. coli (pHIS1, a modified pET expression vector)
T1 sequence (P51449 with tags, fused parts or gaps): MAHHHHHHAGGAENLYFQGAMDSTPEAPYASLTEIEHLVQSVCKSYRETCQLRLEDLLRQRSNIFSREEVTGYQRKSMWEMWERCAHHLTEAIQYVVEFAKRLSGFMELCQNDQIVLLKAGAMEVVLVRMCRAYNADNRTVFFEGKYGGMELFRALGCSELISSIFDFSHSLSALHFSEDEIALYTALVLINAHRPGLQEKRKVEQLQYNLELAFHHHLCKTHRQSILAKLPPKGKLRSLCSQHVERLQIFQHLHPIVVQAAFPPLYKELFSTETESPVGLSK
Experimental: This approach is applicable to a wide variety of systems, and rigorous in theoretical interpretation through quantitation of equilibrium binding constants (KD).
The shift in the melting point described as a ΔTm is proportional to the concentration and affinity of the ligand.
Protein and compound solutions are dispensed into black 384-well polypropylene PCR microplates (Abgene) and overlayed with silicone oil (1 μL, Fluka, type DC 200) to prevent evaporation.
Bar-coded assay plates are robotically loaded onto a thermostatically controlled PCR-type thermal block and then heated at a typical ramp-rate of 1° C./min for all experiments.
Fluorescence was measured by continuous illumination with UV light (Hamamatsu LC6) supplied via fiber optic and filtered through a band-pass filter (380-400 nm; >6 OD cutoff). Fluorescence emission of the entire 384-well plate was detected by measuring light intensity using a CCD camera (Sensys, Roper Scientific) filtered to detect 500±25 nm, resulting in simultaneous and independent readings of all 384 wells. Images were collected at each temperature, and the sum of the pixel intensity in a given area of the assay plate was recorded versus temperature. Reference wells contained RORγt without compounds, and the assay conditions were as follows: • 0.065 mg/mL RORγt • 60 μM 1,8-ANS • 100 mM Hepes, pH 7.0 • 10 mM NaCl • 2.5 mM GSH • 0.002% Tween-20
Project compounds were arranged in a pre-dosed mother plate (Greiner Bio-one) wherein compounds are serially diluted in 100% DMSO by 1:2 from a high concentration of 10 mM over 12 columns within a series (column 12 is a reference well containing DMSO, no compound). The compounds were robotically dispensed directly into assay plates (1×=46 nL) using a Hummingbird capillary liquid handling instrument (Digilab). Following compound dispense, protein and dye in buffer was added to achieve the final assay volume of 3 μL, followed by 1 μL of silicone oil.

full-length human RORγt = target: T2, full-length human RORγt (Homo sapiens, UniProt P51449); assay: RORγt (full-length human) Reporter Assay, Conditions A; type: cell-based; settings: for IC50: HEK293T cells, GAL4-DBD-RORγt, luciferase, read-out: RORγt (FL) Reporter Assay A, IC50; for inhibition at 6 µM: read-out: RORγt (FL) Reporter Assay A, % inhibition @ 6 μM, 6 μM compound; for inhibition at 0.67 µM: 0.67 μM compound concentration, read-out: RORγt (FL) Reporter Assay A, % inhibition (** at 0.67 μM)
T2 construct: expressed in transfected cells; host or cells: HEK293T, transiently transfected with pCMV-BD-ROR
T2 sequence (P51449 1-497 isoform P51449-2): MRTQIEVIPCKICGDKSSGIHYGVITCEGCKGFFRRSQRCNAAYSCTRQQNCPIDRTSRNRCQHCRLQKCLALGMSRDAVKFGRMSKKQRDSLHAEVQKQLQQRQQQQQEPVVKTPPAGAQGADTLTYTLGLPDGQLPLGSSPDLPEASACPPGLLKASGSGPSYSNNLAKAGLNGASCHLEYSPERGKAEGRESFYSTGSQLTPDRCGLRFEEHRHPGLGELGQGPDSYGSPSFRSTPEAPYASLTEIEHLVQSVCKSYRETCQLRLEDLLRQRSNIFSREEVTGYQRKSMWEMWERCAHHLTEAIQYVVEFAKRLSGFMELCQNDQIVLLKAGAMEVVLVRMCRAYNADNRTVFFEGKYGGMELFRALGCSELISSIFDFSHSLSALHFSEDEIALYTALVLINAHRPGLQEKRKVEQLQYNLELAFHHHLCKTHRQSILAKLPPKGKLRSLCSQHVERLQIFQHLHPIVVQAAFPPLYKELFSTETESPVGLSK
Experimental: After overnight (16 to 20 hours) incubation, media were removed and cells were lysed with 20 μL 1× Passive Lysis Buffer (Promega) for 10-15 minutes. Luminescence was measured using a BMG LUMIstar OPTIMA plate reader, after addition of 75 μL/well firefly luciferase buffer, followed by 75 μL/well Renilla luciferase buffer. To calculate the effect of compounds on RORγt activity, firefly values were normalized against values of DMSO only and values of reference compound at saturating concentration, then further normalized against Renilla signals. IC50s were generated by plotting final Renilla normalized data against compound concentration and percent inhibition was calculated against DMSO control.

| Kd [1] [nM] | IC50 (full-length human RORγt) [nM] | inhibition at 6 µM (full-length human RORγt) [%] | inhibition at 0.67 µM (full-length human RORγt) [%] | inhibition at 2 µM (full-length human RORγt; read-out: RORγt (FL) Reporter Assay A, % inhibition (* at 2 μM), 2 μM compound concentration (footnote *)) [%] | SMILES |
| --- | --- | --- | --- | --- | --- |
| 1 | 10 | 106 |  |  | CC[C@H](NS(=O)(=O)c1ccc(-c2sc(-c3nnc(CC(C)(C)C#N)o3)nc2C(=O)N2CCC(F)CC2)c(Cl)c1Cl)C(F)(F)F [Example 1/1, (S)-2,3-Dichloro-4-(2-(5-(2-cyano-2-methylpropyl)-1,3,4-oxadiazol-2-yl)-4-(4-fluoropiperidine-1-carbonyl)thiazol-5-yl)-N-(1,1,1-trifluorobutan-2-yl)benzenesulfonamide] |
| 0.42 | 11 |  | 105 |  | COC1(c2nnc(-c3nc(C(=O)N4CCC(F)(F)CC4)c(-c4ccc(S(=O)(=O)N[C@@H](C)C(F)(F)F)c(Cl)c4Cl)s3)o2)CC1 [Example 1/2, (S)-2,3-Dichloro-4-(4-(4,4-difluoropiperidine-1-carbonyl)-2-(5-(1-methoxycyclopropyl)-1,3,4-oxadiazol-2-yl)thiazol-5-yl)-N-(1,1,1-trifluoropropan-2-yl)benzenesulfonamide] |
| 0.7 | 4.5 |  | 103 |  | C[C@H](NS(=O)(=O)c1ccc(-c2sc(-c3nnc(C4(C(F)(F)F)CC4)o3)nc2C(=O)N2CCC(F)(F)CC2)c(Cl)c1Cl)C(F)(F)F [Example 1/3, (S)-2,3-Dichloro-4-(4-(4,4-difluoropiperidine-1-carbonyl)-2-(5-(1-(trifluoromethyl)cyclopropyl)-1,3,4-oxadiazol-2-yl)thiazol-5-yl)-N-(1,1,1-trifluoropropan-2-yl)benzenesulfonamide] |
| 4.7 | 55 | 101 |  |  | C[C@H](NS(=O)(=O)c1ccc(-c2sc(-c3nnc(CS(C)(=O)=O)o3)nc2C(=O)N2CCC(F)(F)CC2)c(Cl)c1Cl)C(F)(F)F [Example 1/4, (S)-2,3-Dichloro-4-(4-(4,4-difluoropiperidine-1-carbonyl)-2-(5-((methylsulfonyl)methyl)-1,3,4-oxadiazol-2-yl)thiazol-5-yl)-N-(1,1,1-trifluoropropan-2-yl)benzenesulfonamide] |
| 0.003 | 100 | 104 |  |  | CC[C@H](NS(=O)(=O)c1ccc(-c2sc(-c3nnc(CC(C)(C)C(=O)O)o3)nc2C(=O)N2CCCC[C@@H]2C)c(Cl)c1Cl)C(F)(F)F [Example 2, 3-(5-(5-(2,3-Dichloro-4-(N—((S)-1,1,1-trifluorobutan-2-yl)sulfamoyl)phenyl)-4-((S)-2-methylpiperidine-1-carbonyl)thiazol-2-yl)-1,3,4-oxadiazol-2-yl)-2,2-dimethylpropanoic acid] |
| 0.98 | 230 | 102 |  |  | C[C@H]1CCCCN1C(=O)c1nc(-c2nnc(CC(C)(C)C(=O)O)o2)sc1-c1ccc(C(O)(C(F)(F)F)C(F)(F)F)c(Cl)c1Cl [Example 2/1, (S)-3-(5-(5-(2,3-Dichloro-4-(1,1,1,3,3,3-hexafluoro-2-hydroxypropan-2-yl)phenyl)-4-(2-methylpiperidine-1-carbonyl)thiazol-2-yl)-1,3,4-oxadiazol-2-yl)-2,2-dimethylpropanoic acid] |
|  |  |  |  | 102 | CC[C@H](NS(=O)(=O)c1ccc(-c2sc(-c3nnc(C(C)(C)O)o3)nc2C(=O)N2CCC(F)CC2)c(Cl)c1Cl)C(F)(F)F [Example 6/1, (S)-2,3-Dichloro-4-(4-(4-fluoropiperidine-1-carbonyl)-2-(5-(2-hydroxypropan-2-yl)-1,3,4-oxadiazol-2-yl)thiazol-5-yl)-N-(1,1,1-trifluorobutan-2-yl)benzenesulfonamide] |
|  | 9 | 104 |  |  | CC[C@H](NS(=O)(=O)c1ccc(-c2sc(-c3noc(CC(C)(C)C(=O)O)n3)nc2C(=O)N2CCCC[C@@H]2C)c(Cl)c1Cl)C(F)(F)F [Example 10, 3-(3-(5-(2,3-Dichloro-4-(N—((S)-1,1,1-trifluorobutan-2-yl)sulfamoyl)phenyl)-4-((S)-2-methylpiperidine-1-carbonyl)thiazol-2-yl)-1,2,4-oxadiazol-5-yl)-2,2-dimethylpropanoic acid] |
|  | 33 | 99 |  |  | CC[C@H](NS(=O)(=O)c1ccc(-c2sc(-c3noc(CC(C)(C)C(=O)O)n3)nc2C(=O)N2CCCC[C@@H]2C)c(C(F)F)c1Cl)C(F)(F)F [Example 10/4, 3-(3-(5-(3-Chloro-2-(difluoromethyl)-4-(N—((S)-1,1,1-trifluorobutan-2-yl)sulfamoyl)phenyl)-4-((S)-2-methylpiperidine-1-carbonyl)thiazol-2-yl)-1,2,4-oxadiazol-5-yl)-2,2-dimethylpropanoic acid] |
| 5.5 |  |  |  |  | CC(C)(O)c1nnc(-c2nc(C(=O)N3CCC(F)(F)CC3)c(-c3ccc(C(O)(C(F)(F)F)C(F)(F)F)cc3C(F)F)s2)o1 [Example 28, (5-(2-(difluoromethyl)-4-(1,1,1,3,3,3-hexafluoro-2-hydroxypropan-2-yl)phenyl)-2-(5-(2-hydroxypropan-2-yl)-1,3,4-oxadiazol-2-yl)thiazol-4-yl)(4,4-difluoropiperidin-1-yl)methanone] |
| 17 |  |  |  |  | C[C@H]1CCCN1C(=O)c1nc(-c2nnc(C(C)(C)O)o2)sc1-c1ccc(C(O)(C(F)(F)F)C(F)(F)F)cc1C(F)F [Example 29, (S)-(5-(2-(difluoromethyl)-4-(1,1,1,3,3,3-hexafluoro-2-hydroxypropan-2-yl)phenyl)-2-(5-(2-hydroxypropan-2-yl)-1,3,4-oxadiazol-2-yl)thiazol-4-yl)(2-methylpyrrolidin-1-yl)methanone] |
| 22 |  |  |  |  | C[C@H]1CCCN1C(=O)c1nc(-c2noc(C(C)(C)O)n2)sc1-c1ccc(C(O)(C(F)(F)F)C(F)(F)F)cc1C(F)F [Example 30, (S)-(5-(2-(difluoromethyl)-4-(1,1,1,3,3,3-hexafluoro-2-hydroxypropan-2-yl)phenyl)-2-(5-(2-hydroxypropan-2-yl)-1,2,4-oxadiazol-3-yl)thiazol-4-yl)(2-methylpyrrolidin-1-yl)methanone] |
| 18 |  |  |  |  | Cc1cc(C(O)(C(F)(F)F)C(F)(F)F)ccc1-c1sc(-c2nnc(C(C)(C)O)o2)nc1C(=O)N1CCC[C@@H]1C [Example 31, (S)-(5-(4-(1,1,1,3,3,3-hexafluoro-2-hydroxypropan-2-yl)-2-methylphenyl)-2-(5-(2-hydroxypropan-2-yl)-1,3,4-oxadiazol-2-yl)thiazol-4-yl)(2-methylpyrrolidin-1-yl)methanone] |
| 27 |  |  |  |  | Cc1cc(C(O)(C(F)(F)F)C(F)(F)F)ccc1-c1sc(-c2noc(C(C)(C)O)n2)nc1C(=O)N1CCC[C@@H]1C [Example 32, (S)-(5-(4-(1,1,1,3,3,3-hexafluoro-2-hydroxypropan-2-yl)-2-methylphenyl)-2-(5-(2-hydroxypropan-2-yl)-1,2,4-oxadiazol-3-yl)thiazol-4-yl)(2-methylpyrrolidin-1-yl)methanone] |
